Tested on: Human peripheral blood mononuclear cells (PBMC)
Assay: TNFalfa-Release
Format: cell-based
Conditions: inhibition of TNF-a secretion, PBMC pre-incubated 30 minutes, stimulated 18 hours with lipopolysaccharide
Method: Human peripheral blood mononuclear cells (PBMC) are Isolated from buffy coats. The blood is mixed with saline at a ratio of 1:1, and the PBMC is isolated by the use of Lymphoprep Tubes™ (Nycomed, Norway). The PBMC is suspended in RPMI1640 with 2% foetal calf serum (FCS), pen/strep and 2 mM L-glutamine at a concentration of 5×105 c/ml. The cells are pre-incubated for 30 minutes with the test compounds in 96 well tissue culture plates and stimulated for 18 hours with lipopolysaccharide 1 mg/ml (Sigma). The level of TNF-a is measured in the culture supernatant by enzyme immuno assays using primary and secondary biotinylated antibodies from R&D systems. Results are expressed as pIC50 values calculated from inhibition curves using as positive controls the secretion in LPS stimulated wells and as negative controls the secretion in unstimulated cells.

SMILES | IC50 [µM]
C=CCOc1c(OC)ccc(C(=O)Cc2c(Cl)cncc2Cl)c1OC [Compound 193, 1-(3-Allyloxy-2,4-dimethoxy-phenyl)-2-(3,5-dichloro-pyridin-4-yl)-ethanone] | < 1
CC#CCOc1c(C(=O)Cc2c(Cl)cncc2Cl)ccc(OC)c1OC [Compound 110, 1-(2-But-2-ynyloxy-3,4-dimethoxy-phenyl)-2-(3,5-dichloro-pyridin-4-yl)-ethanone] | < 1
CCOc1c(OC)ccc(C(=O)Cc2c(Cl)cncc2Cl)c1OCc1nnc(C2CC2)s1 [Compound 264, 1-[2-(5-Cyclopropyl-[1,3,4]thiadiazol-2-ylmethoxy)-3-ethoxy-4-methoxy-phenyl]-2-(3,5-dichloro-pyridin-4-yl)-ethanone] | < 1
COc1ccc(C(=O)Cc2c(Cl)cncc2Cl)c(OCC(=O)NCCc2ccccc2)c1OC [Compound 241, 2-{6-[2-(3,5-Dichloro-pyridin-4-yl)-acetyl]-2,3-dimethoxy-phenoxy}-N-phenethyl-acetamide] | < 1
CCCCOc1c(C(=O)Cc2c(Cl)cncc2Cl)ccc(OC)c1OC [Compound 140, 1-(2-Butoxy-3,4-dimethoxy-phenyl)-2-(3,5-dichloro-pyridin-4-yl)-ethanone] | < 1
COc1ccc(C(=O)Cc2c(Cl)cncc2Cl)c(OCC(=O)NCCCOC(C)C)c1OC [Compound 227, 2-{6-[2-(3,5-Dichloro-pyridin-4-yl)-acetyl]-2,3-dimethoxy-phenoxy}-N-(3-isopropoxy-propyl)-acetamide] | < 1
COc1ccc(C(=O)Cc2c(Cl)cncc2Cl)c(OCC(=O)c2ccc3ccccc3c2)c1OC [Compound 157, 2-(3,5-Dichloro-pyridin-4-yl)-1-[3,4-dimethoxy-2-(2-naphthalen-2-yl-2-oxo-ethoxy)-phenyl]-ethanone] | < 1
COc1ccc(C(=O)Cc2c(Cl)cncc2Cl)c(OCc2c(F)cccc2C(F)(F)F)c1OC [Compound 170, 2-(3,5-Dichloro-pyridin-4-yl)-1-[2-(2-fluoro-6-trifluoromethyl-benzyloxy)-3,4-dimethoxy-phenyl]-ethanone] | < 1
COc1ccc(C(=O)Cc2c(Cl)cncc2Cl)c(OCCO)c1OC [Compound 155, 2-(3,5-Dichloro-pyridin-4-yl)-1-[2-(2-hydroxy-ethoxy)-3,4-dimethoxy-phenyl]-ethanone] | < 1
COc1ccc(C(=O)Cc2c(Cl)cncc2Cl)c(OCCc2ccc(Cl)cc2)c1OC [Compound 120, 1-{2-[2-(4-Chloro-phenyl)-ethoxy]-3,4-dimethoxy-phenyl}-2-(3,5-dichloro-pyridin-4-yl)-ethanone] | < 1
COc1ccc(C(=O)Cc2c(Cl)cncc2Cl)c(OCC(=O)Nc2ccccc2)c1OC [Compound 205, 2-{6-[2-(3,5-Dichloro-pyridin-4-yl)-acetyl]-2,3-dimethoxy-phenoxy}-N-phenyl-acetamide] | < 1
COc1ccc(C(=O)Cc2c(Cl)cncc2Cl)c(OCC(N)=O)c1OC [Compound 184, 2-{6-[2-(3,5-Dichloro-pyridin-4-yl)-acetyl]-2,3-dimethoxy-phenoxy}-acetamide] | < 1
COc1ccc(C(=O)Cc2c(Cl)cncc2Cl)c(OCC(=O)NCCN(C)C)c1OC [Compound 224, 2-{6-[2-(3,5-Dichloro-pyridin-4-yl)-acetyl]-2,3-dimethoxy-phenoxy}-N-(2-dimethylamino-ethyl)-acetamide] | < 1
COc1ccc(C(=O)Cc2c(Cl)cncc2Cl)c(OCC(=O)N2CCCC2)c1OC [Compound 202, 2-(3,5-Dichloro-pyridin-4-yl)-1-[3,4-dimethoxy-2-(2-oxo-2-pyrrolidin-1-yl-ethoxy)-phenyl]-ethanone] | < 1
COc1ccc(C(=O)Cc2c(Cl)cncc2Cl)c(OCCN2C(=O)c3ccccc3C2=O)c1OC [Compound 185, 2-(2-{6-[2-(3,5-Dichloro-pyridin-4-yl)-acetyl]-2,3-dimethoxy-phenoxy}-ethyl)-isoindole-1,3-dione] | < 1
COc1ccc(CNC(=O)COc2c(C(=O)Cc3c(Cl)cncc3Cl)ccc(OC)c2OC)cc1 [Compound 213, 2-{6-[2-(3,5-Dichloro-pyridin-4-yl)-acetyl]-2,3-dimethoxy-phenoxy}-N-(4-methoxy-benzyl)-acetamide] | < 1
COc1cccc(CNC(=O)COc2c(C(=O)Cc3c(Cl)cncc3Cl)ccc(OC)c2OC)c1 [Compound 216, 2-{6-[2-(3,5-Dichloro-pyridin-4-yl)-acetyl]-2,3-dimethoxy-phenoxy}-N-(3-methoxy-benzyl)-acetamide] | < 1
COc1ccc(C(=O)Cc2c(Cl)cncc2Cl)c(OCC(=O)NCC2CCCCCC2)c1OC [Compound 257, N-Cycloheptylmethyl-2-{6-[2-(3,5-dichloro-pyridin-4-yl)-acetyl]-2,3-dimethoxy-phenoxy}-acetamide] | < 1

SMILES | IC50 [µM]
CCCNC(=O)COc1c(C(=O)Cc2ccncc2Br)ccc(OC)c1OC [Compound 292, 2-{6-[2-(3-Bromo-pyridin-4-yl)-acetyl]-2,3-dimethoxy-phenoxy}-N-propyl-acetamide] | < 1
COc1ccc(CCOc2c(C(=O)Cc3c(Cl)cncc3Cl)ccc(OC)c2OC)cc1OC [Compound 131, 2-(3,5-Dichloro-pyridin-4-yl)-1-{2-[2-(3,4-dimethoxy-phenyl)-ethoxy]-3,4-dimethoxy-phenyl}-ethanone] | < 1
COC(=O)c1cccc(COc2c(C(=O)Cc3c(Cl)cncc3Cl)ccc(OC)c2OC)c1 [Compound 134, 3-{6-[2-(3,5-Dichloro-pyridin-4-yl)-acetyl]-2,3-dimethoxy-phenoxymethyl}-benzoic acid methyl ester] | < 1
COc1ccc(C(=O)Cc2c(Cl)cncc2Cl)c(OCCCc2ccccc2)c1OC [Compound 124, 2-(3,5-Dichloro-pyridin-4-yl)-1-[3,4-dimethoxy-2-(3-phenyl-propoxy)-phenyl]-ethanone] | < 1
CCCNC(=O)COc1c(C(=O)Cc2c(Cl)cccc2Cl)ccc(OC)c1OC [Compound 288, 2-{6-[2-(2,6-Dichloro-phenyl)-acetyl]-2,3-dimethoxy-phenoxy}-N-propyl-acetamide] | < 1
COc1ccc(C(=O)Cc2c(Cl)cncc2Cl)c(OCC(=O)N[C@@H](C)c2ccccc2)c1OC [Compound 226, (S)-2-(6-[2-(3,5-Dichloro-pyridin-4-yl)-acetyl]-2,3-dimethoxy-phenoxy)-N-(1-phenyl-ethyl)-acetamide] | < 1
COc1ccc(C(=O)Cc2c(Cl)cncc2Cl)c(OCC(=O)NCc2ccncc2)c1OC [Compound 232, 2-{6-[2-(3,5-Dichloro-pyridin-4-yl)-acetyl]-2,3-dimethoxy-phenoxy}-N-pyridin-4-ylmethyl-acetamide] | < 1
COc1ccc(C(=O)Cc2c(Cl)cncc2Cl)c(OCc2ccc(C#N)cc2)c1OC [Compound 148, 4-{6-[2-(3,5-Dichloro-pyridin-4-yl)-acetyl]-2,3-dimethoxy-phenoxymethyl}-benzonitrile] | < 1
COc1ccc(C(=O)Cc2c(Cl)cncc2Cl)c(OCC(=O)NCc2ccccc2Cl)c1OC [Compound 244, N-(2-Chloro-benzyl)-2-{6-[2-(3,5-dichloro-pyridin-4-yl)-acetyl]-2,3-dimethoxy-phenoxy}-acetamide] | < 1
COc1ccc(C(=O)Cc2c(Cl)c[n+]([O-])cc2Cl)c(OCC(=O)NCc2ccccc2)c1OC [Compound 270, N-Benzyl-2-{6-[2-(3,5-dichloro-1-oxy-pyridin-4-yl)-acetyl]-2,3-dimethoxy-phenoxy}-acetamide] | < 1
CCOC(=O)CCCCOc1c(C(=O)Cc2c(Cl)cncc2Cl)ccc(OC)c1OC [Compound 182, 5-{6-[2-(3,5-Dichloro-pyridin-4-yl)-acetyl]-2,3-dimethoxy-phenoxy}-pentanoic acid ethyl ester] | < 1
COc1ccc(C(=O)Cc2c(Cl)cncc2Cl)c(OCC(=O)NCc2ccc(Cl)cc2)c1OC [Compound 248, N-(4-Chloro-benzyl)-2-{6-[2-(3,5-dichloro-pyridin-4-yl)-acetyl]-2,3-dimethoxy-phenoxy}-acetamide] | < 1
CCc1ccc(CNC(=O)COc2c(C(=O)Cc3c(Cl)cncc3Cl)ccc(OC)c2OC)cc1 [Compound 233, 2-{6-[2-(3,5-Dichloro-pyridin-4-yl)-acetyl]-2,3-dimethoxy-phenoxy}-N-(4-ethyl-benzyl)-acetamide] | < 1
COc1ccc(C(=O)Cc2c(Cl)cncc2Cl)c(OCC(=O)NCCO)c1OC [Compound 220, 2-{6-[2-(3,5-Dichloro-pyridin-4-yl)-acetyl]-2,3-dimethoxy-phenoxy}-N-(2-hydroxy-ethyl)-acetamide] | < 1
COc1ccc(C(=O)Cc2c(Cl)cncc2Cl)c(OCC(=O)NC2CCCCC2)c1OC [Compound 215, N-Cyclohexyl-2-{6-[2-(3,5-dichloro-pyridin-4-yl)-acetyl]-2,3-dimethoxy-phenoxy}-acetamide] | < 1
COc1ccc(C(=O)Cc2c(Cl)cncc2Cl)c(OCC(=O)NCCc2ccccn2)c1OC [Compound 236, 2-{6-[2-(3,5-Dichloro-pyridin-4-yl)-acetyl]-2,3-dimethoxy-phenoxy}-N-(2-pyridin-2-yl-ethyl)-acetamide] | < 1
CCCCCOc1c(C(=O)Cc2c(Cl)cncc2Cl)ccc(OC)c1OC [Compound 150, 2-(3,5-Dichloro-pyridin-4-yl)-1-(3,4-dimethoxy-2-pentyloxy-phenyl)-ethanone] | < 1
COc1ccc(C(=O)Cc2c(Cl)cncc2Cl)c(OCC(=O)NC2CCCCCC2)c1OC [Compound 217, N-Cycloheptyl-2-{6-(2-(3,5-dichloro-pyridin-4-yl)-acetyl)-2,3-dimethoxy-phenoxy}-acetamide] | < 1

From US8497380B2, “Substituted acetophenones useful as PDE4 inhibitors” (Leo Pharma A/S, priority 2006, dated 2013)
